Experiments:
Experiment in all cases: radiometric filter-binding kinase assay, Kinase HotSpot
Conditions in all cases: compound 0.5 µM; ATP 10 µM
PTK6 (human) = PTK6 (human) (UniProt Q13882)
CAMK2B (human) = CAMK2B (human) (UniProt Q13554)
NEK7 (human) = NEK7 (human) (UniProt Q8TDX7)
AKT2 (human) = AKT2 (human) (UniProt P31751)
STK25 (human) = STK25 (human) (UniProt O00506)
CHUK (human) = CHUK (human) (UniProt O15111)
MYLK (human) = MYLK (human) (UniProt Q15746)
PRKCB1 (human) = PRKCB1 (human) (UniProt P05771)
MAPK9 (human) = MAPK9 (human) (UniProt P45984)
IRAK1 (human) = IRAK1 (human) (UniProt P51617)
FLT3 (human) = FLT3 (human) (UniProt P36888)
MARK1 (human) = MARK1 (human) (UniProt Q9P0L2)
CSF1R (human) = CSF1R (human) (UniProt P07333)
CDK6 CCND1 (human) = CDK6 CCND1 (human) (UniProt Q00534+P24385)
PRKACA (human) = PRKACA (human) (UniProt P17612)
FGR (human) = FGR (human) (UniProt P09769)
ACVR1B (human) = ACVR1B (human) (UniProt P36896)
FES (human) = FES (human) (UniProt P07332)
WNK3 (human) = WNK3 (human) (UniProt Q9BYP7)
ABL1 (human) = ABL1 (human) (UniProt P00519)
INSRR (human) = INSRR (human) (UniProt P14616)
GSG2 (human) = GSG2 (human) (UniProt Q8TF76)
TEK (human) = TEK (human) (UniProt Q02763)
AXL (human) = AXL (human) (UniProt P30530)
NEK9 (human) = NEK9 (human) (UniProt Q8TD19)
SRPK3 (human) = SRPK3 (human) (UniProt Q9UPE1)
CDC42BPA (human) = CDC42BPA (human) (UniProt Q5VT25)
FGFR1 (human) = FGFR1 (human) (UniProt P11362)
CSNK1D (human) = CSNK1D (human) (UniProt P48730)
SLK (human) = SLK (human) (UniProt Q9H2G2)
CAMK4 (human) = CAMK4 (human) (UniProt Q16566)
PLK1 (human) = PLK1 (human) (UniProt P53350)
NEK3 (human) = NEK3 (human) (UniProt P51956)
PDGFRA (human) = PDGFRA (human) (UniProt P16234)
[1] = system: MKNK1 (human), Q9BUB5 [T385D; 165-205 del]
MAPK3 (human) = MAPK3 (human) (UniProt P27361)
GRK7 (human) = GRK7 (human) (UniProt Q8WTQ7)
MLTK (human) = MLTK (human) (UniProt Q9NYL2)
PHKG1 (human) = PHKG1 (human) (UniProt Q16816)
MARK2 (human) = MARK2 (human) (UniProt Q7KZI7)
DYRK1B (human) = DYRK1B (human) (UniProt Q9Y463)
CLK3 (human) = CLK3 (human) (UniProt P49761)

CSF1R (human), sequence (P07333 whole entry, looked up): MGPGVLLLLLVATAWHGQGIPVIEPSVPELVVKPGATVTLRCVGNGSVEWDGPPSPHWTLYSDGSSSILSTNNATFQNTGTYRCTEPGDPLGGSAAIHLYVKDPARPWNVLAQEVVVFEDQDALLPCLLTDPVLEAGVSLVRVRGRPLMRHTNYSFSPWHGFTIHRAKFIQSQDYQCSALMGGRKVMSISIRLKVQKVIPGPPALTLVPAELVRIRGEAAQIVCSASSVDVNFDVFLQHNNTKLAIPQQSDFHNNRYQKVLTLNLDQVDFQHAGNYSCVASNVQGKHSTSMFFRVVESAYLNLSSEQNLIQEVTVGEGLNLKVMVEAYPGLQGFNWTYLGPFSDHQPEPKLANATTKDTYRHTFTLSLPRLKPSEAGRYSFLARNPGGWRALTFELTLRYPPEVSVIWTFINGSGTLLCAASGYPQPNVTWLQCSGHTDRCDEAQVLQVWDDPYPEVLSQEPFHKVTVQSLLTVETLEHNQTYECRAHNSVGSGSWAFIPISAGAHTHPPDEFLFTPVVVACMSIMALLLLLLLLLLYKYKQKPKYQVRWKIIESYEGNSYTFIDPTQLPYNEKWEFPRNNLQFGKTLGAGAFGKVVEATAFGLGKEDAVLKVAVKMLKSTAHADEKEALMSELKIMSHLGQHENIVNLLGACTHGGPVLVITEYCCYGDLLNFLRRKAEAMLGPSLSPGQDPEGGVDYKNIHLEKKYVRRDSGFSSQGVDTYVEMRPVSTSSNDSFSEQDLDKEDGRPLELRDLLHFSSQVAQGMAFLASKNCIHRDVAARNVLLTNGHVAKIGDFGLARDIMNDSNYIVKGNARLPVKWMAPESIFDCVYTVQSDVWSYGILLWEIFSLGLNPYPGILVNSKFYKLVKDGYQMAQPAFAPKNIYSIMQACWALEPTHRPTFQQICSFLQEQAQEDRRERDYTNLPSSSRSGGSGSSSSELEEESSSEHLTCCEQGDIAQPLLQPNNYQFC
TEK (human), sequence (Q02763 whole entry, looked up): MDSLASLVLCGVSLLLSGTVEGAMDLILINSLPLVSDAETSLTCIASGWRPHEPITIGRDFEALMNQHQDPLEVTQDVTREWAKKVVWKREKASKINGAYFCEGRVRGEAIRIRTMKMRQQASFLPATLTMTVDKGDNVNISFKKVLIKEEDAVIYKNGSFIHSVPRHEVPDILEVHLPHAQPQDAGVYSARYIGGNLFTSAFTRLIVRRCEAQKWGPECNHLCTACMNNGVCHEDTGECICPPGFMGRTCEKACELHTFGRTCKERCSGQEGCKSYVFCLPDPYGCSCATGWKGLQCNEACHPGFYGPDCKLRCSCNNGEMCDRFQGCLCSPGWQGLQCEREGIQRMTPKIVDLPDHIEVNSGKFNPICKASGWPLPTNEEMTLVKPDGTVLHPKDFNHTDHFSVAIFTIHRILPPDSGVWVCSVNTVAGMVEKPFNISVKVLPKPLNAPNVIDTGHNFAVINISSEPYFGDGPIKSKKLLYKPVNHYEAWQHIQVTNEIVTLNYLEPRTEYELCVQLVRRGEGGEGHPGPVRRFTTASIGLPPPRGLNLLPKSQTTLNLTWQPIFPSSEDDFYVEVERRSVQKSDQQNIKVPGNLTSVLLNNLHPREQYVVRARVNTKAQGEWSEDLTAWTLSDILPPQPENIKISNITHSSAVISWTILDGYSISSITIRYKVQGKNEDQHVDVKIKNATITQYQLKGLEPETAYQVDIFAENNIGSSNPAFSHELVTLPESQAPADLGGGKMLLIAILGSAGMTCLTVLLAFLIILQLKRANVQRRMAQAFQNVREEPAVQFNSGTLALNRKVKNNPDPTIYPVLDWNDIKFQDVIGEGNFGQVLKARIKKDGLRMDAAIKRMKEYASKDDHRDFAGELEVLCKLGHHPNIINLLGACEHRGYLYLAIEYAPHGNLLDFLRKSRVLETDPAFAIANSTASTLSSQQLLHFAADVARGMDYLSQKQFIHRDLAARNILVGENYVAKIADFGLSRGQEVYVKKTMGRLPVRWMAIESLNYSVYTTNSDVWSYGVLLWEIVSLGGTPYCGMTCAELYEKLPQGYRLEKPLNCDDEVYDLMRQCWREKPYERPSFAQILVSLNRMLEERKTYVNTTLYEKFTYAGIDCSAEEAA
WNK3 (human), sequence (Q9BYP7 whole entry, looked up): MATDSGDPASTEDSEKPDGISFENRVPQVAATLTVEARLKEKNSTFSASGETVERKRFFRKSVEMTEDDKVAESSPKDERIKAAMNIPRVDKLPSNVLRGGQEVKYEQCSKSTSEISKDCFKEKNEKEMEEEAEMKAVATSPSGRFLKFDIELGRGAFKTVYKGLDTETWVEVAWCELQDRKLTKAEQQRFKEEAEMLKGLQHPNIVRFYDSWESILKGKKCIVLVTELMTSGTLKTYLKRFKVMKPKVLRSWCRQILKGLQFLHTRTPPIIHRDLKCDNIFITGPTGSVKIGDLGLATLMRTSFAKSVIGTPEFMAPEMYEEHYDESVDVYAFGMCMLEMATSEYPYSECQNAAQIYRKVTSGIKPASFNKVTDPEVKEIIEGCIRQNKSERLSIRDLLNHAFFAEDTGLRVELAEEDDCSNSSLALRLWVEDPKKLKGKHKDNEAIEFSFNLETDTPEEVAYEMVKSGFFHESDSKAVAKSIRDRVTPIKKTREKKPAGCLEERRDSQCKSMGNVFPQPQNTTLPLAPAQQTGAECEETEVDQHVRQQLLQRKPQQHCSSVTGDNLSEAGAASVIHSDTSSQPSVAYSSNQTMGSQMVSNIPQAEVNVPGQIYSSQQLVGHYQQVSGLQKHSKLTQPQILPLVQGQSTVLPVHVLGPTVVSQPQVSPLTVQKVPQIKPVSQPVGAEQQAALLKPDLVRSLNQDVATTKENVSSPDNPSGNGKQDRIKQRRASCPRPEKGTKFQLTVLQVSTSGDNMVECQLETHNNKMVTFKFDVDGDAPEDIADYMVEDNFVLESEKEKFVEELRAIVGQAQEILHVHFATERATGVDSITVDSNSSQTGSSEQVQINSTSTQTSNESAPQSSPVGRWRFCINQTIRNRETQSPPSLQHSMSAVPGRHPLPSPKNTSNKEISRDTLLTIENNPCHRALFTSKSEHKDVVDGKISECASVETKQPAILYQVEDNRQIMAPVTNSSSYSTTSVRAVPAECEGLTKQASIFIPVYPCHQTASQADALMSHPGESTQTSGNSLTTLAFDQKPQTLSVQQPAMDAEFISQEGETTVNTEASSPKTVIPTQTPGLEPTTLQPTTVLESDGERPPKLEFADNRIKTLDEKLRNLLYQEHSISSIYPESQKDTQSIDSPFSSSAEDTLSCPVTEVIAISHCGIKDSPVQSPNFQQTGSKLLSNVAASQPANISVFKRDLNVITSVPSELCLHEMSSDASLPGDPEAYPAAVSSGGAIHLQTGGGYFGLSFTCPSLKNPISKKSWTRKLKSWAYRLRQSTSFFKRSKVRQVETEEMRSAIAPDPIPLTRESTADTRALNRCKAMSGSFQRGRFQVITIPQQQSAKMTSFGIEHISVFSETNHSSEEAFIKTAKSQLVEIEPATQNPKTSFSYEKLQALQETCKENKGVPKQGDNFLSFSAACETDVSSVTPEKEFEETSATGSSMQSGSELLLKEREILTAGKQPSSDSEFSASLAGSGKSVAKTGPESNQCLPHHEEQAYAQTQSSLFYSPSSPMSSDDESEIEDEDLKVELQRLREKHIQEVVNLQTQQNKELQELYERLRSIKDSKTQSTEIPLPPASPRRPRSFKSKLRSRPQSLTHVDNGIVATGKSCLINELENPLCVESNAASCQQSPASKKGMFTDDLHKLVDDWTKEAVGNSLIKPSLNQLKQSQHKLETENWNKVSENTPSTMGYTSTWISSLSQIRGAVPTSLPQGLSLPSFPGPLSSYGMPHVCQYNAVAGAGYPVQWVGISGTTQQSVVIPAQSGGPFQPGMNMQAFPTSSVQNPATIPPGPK
PRKCB1 (human), sequence (P05771 whole entry, looked up): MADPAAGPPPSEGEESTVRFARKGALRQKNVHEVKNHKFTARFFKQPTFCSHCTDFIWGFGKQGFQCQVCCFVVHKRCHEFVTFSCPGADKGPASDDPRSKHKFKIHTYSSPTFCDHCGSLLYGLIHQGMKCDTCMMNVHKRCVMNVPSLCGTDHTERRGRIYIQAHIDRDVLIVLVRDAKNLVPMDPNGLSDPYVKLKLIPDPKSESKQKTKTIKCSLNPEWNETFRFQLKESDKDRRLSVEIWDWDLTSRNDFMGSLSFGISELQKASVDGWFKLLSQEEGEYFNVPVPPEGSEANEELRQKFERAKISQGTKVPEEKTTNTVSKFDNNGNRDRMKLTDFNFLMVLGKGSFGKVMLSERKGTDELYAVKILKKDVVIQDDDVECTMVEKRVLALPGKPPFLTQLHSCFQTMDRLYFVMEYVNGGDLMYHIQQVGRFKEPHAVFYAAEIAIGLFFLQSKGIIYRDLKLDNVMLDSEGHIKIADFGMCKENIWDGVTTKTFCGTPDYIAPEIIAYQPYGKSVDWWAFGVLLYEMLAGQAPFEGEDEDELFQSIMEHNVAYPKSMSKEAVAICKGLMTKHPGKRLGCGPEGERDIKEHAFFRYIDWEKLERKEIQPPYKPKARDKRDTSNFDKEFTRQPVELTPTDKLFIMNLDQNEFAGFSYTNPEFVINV
PHKG1 (human), sequence (Q16816 whole entry, looked up): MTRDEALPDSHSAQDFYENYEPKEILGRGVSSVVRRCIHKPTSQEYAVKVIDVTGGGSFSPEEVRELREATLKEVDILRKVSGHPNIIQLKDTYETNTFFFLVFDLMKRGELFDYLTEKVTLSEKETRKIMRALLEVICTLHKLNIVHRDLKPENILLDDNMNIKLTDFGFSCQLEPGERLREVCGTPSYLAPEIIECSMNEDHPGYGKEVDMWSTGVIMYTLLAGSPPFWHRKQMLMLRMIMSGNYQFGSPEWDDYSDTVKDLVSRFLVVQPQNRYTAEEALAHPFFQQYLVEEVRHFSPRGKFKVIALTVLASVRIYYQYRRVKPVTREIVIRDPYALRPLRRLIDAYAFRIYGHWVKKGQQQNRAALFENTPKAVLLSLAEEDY

CS(=O)(=O)CCNCc1ccc(-c2ccc3ncnc(Nc4ccc(OCc5cccc(F)c5)c(Cl)c4)c3c2)o1
residual activity (PTK6 (human)): 103% | residual activity (CAMK2B (human)): 93.8% | residual activity (NEK7 (human)): 98.7% | residual activity (AKT2 (human)): 105% | residual activity (STK25 (human)): 102% | residual activity (CHUK (human)): 99.5% | residual activity (MYLK (human)): 90.7% | residual activity (PRKCB1 (human)): 93.5% | residual activity (MAPK9 (human)): 98.1% | residual activity (IRAK1 (human)): 98.8% | residual activity (FLT3 (human)): 92.6% | residual activity (MARK1 (human)): 149% | residual activity (CSF1R (human)): 106% | residual activity (CDK6 CCND1 (human)): 100% | residual activity (PRKACA (human)): 96% | residual activity (FGR (human)): 84.8% | residual activity (ACVR1B (human)): 98.7% | residual activity (FES (human)): 104% | residual activity (WNK3 (human)): 104% | residual activity (ABL1 (human)): 96.4% | residual activity (INSRR (human)): 104% | residual activity (GSG2 (human)): 66.5% | residual activity (TEK (human)): 93.2% | residual activity (AXL (human)): 96.2% | residual activity (NEK9 (human)): 100% | residual activity (SRPK3 (human)): 104% | residual activity (CDC42BPA (human)): 88.2% | residual activity (FGFR1 (human)): 102% | residual activity (CSNK1D (human)): 91.2% | residual activity (SLK (human)): 85.1% | residual activity (CAMK4 (human)): 107% | residual activity (PLK1 (human)): 99% | residual activity (NEK3 (human)): 99.6% | residual activity (PDGFRA (human)): 108% | residual activity [1]: 94.5% | residual activity (MAPK3 (human)): 94.8% | residual activity (GRK7 (human)): 95.8% | residual activity (MLTK (human)): 96.7% | residual activity (PHKG1 (human)): 95.7% | residual activity (MARK2 (human)): 137% | residual activity (DYRK1B (human)): 93.1% | residual activity (CLK3 (human)): 107%

CN(C)S(=O)(=O)c1ccc2c(c1)/C(=C/c1cc3c([nH]1)CCCC3)C(=O)N2
residual activity (PTK6 (human)): 56.3% | residual activity (CAMK2B (human)): 70% | residual activity (NEK7 (human)): 103% | residual activity (AKT2 (human)): 105% | residual activity (STK25 (human)): 79.6% | residual activity (CHUK (human)): 115% | residual activity (MYLK (human)): 97.2% | residual activity (PRKCB1 (human)): 106% | residual activity (MAPK9 (human)): 104% | residual activity (IRAK1 (human)): 5.59% | residual activity (FLT3 (human)): 10.2% | residual activity (MARK1 (human)): 54.6% | residual activity (CSF1R (human)): 37.2% | residual activity (CDK6 CCND1 (human)): 92.5% | residual activity (PRKACA (human)): 106% | residual activity (FGR (human)): 18.2% | residual activity (ACVR1B (human)): 105% | residual activity (FES (human)): 76.9% | residual activity (WNK3 (human)): 96.5% | residual activity (ABL1 (human)): 57.3% | residual activity (INSRR (human)): 93.3% | residual activity (GSG2 (human)): 116% | residual activity (TEK (human)): 95.4% | residual activity (AXL (human)): 39.7% | residual activity (NEK9 (human)): 93.2% | residual activity (SRPK3 (human)): 67.2% | residual activity (CDC42BPA (human)): 92.3% | residual activity (FGFR1 (human)): 71.4% | residual activity (CSNK1D (human)): 99.7% | residual activity (SLK (human)): 23.4% | residual activity (CAMK4 (human)): 96.6% | residual activity (PLK1 (human)): 101% | residual activity (NEK3 (human)): 98.2% | residual activity (PDGFRA (human)): 93.7% | residual activity [1]: 108% | residual activity (MAPK3 (human)): 102% | residual activity (GRK7 (human)): 82.3% | residual activity (MLTK (human)): 99.4% | residual activity (PHKG1 (human)): 72.4% | residual activity (MARK2 (human)): 61.7% | residual activity (DYRK1B (human)): 93.6% | residual activity (CLK3 (human)): 92.9%

— the kinase profiling compilation of Christmann-Franck et al. (2016)
